Assay results as given in patent US20060142188A1 (Memory Pharmaceuticals Corporation, priority 2003, published 2006).

Tests used:
[1] = biological target: T1, mutant (L270T) alpha7 nAchR (Macaca mulatta, UniProt Q866A2, L270T); test: FLIPR functional measurement of mutant mkα7/L270T stably expressed in QM7 cells; assay type: cell-based, rhesus monkey; settings: Fluo-3AM, FIG. 7
T1 construct: expressed in transfected cells
Experimental: (§1) QM 7 cells were routinely grown as monolayers in minimum essential medium 199 supplemented with 5% FBS, 2% tryptose phosphate broth, 1% DMSO, penicillin (100 IU/ml) and were passaged every 3-4 days. Transfections with either rhesus monkey wild type alpha7 nAchR (mkα7) or mutant alpha7 nAchR (mkα7/L270T) were performed using Lipofectamine PLUS Kit (Invitrogen). Twenty-four hours after the transfection, cells were split for stable selection with 1 mg/ml G418. Single colonies were isolated and propagated. The expression of mkα7/L270T was identified with FLIPR for fluorescence changes after addition of agonist. The expression of mkα7 was identified by radioligand binding to [^3H]-methyllycaconitine (Virginio, C., A., Giacometti, A. et al. (2002). Pharmacological properties of rat alpha7 nicotinic receptors expressed in native and recombinant cell systems, Eur, J. Pharmacol. 445(3), 153-161.)
Cells were seeded into 96 well black wall and clear-bottom plates (Costar) coated with poly-D-lysine at a density of 20,000 cells per well and cultured overnight. […] The fluorescence was monitored (λex=488 […]) for three minutes immediately after the compound addition. The relative fluorescence unit (RFU) was measured as peak fluorescence intensity minus basal fluorescence intensity. […]

[2] = biological target: T2, rhesus monkey wild-type alpha-7 nACh receptor (Macaca mulatta, UniProt Q866A2); test: Patch clamp net charge analysis of wild-type mkα7 in stably transfected QM7 cells; assay type: cell-based; settings: wild-type alpha-7 clone #1, dose response curve, FIG. 8, normalized to 1 mM ACh
T2 construct: expressed in transfected cells
Experimental: as §1
Stably transfected QM7 cells grown on cover slips and expressing wild-type rhesus monkey alpha7 receptors were incubated at 37° C. in the presence of 5% CO2. Individual cover slips were removed for function analysis and placed in a recording buffer consisting of 140 mM NaCl, 5 mM KCl, 10 mM HEPES, 2 mM CaCl2, 1 mM MgCl2, 100 mM glucose titrated to pH 7.3 and perfused at 2-3 ml/min. […]

`COc1ccc(/C=C2\CCCN=C2c2cccnc2)c(OC)c1` [GTS-21] was tested, and the “EC50 compared with nicotine” value [1] was “better or comparable to that of nicotine”.
An EC50 [2] of 38 µM was found for `CC(=O)OCC[N+](C)(C)C` [acetylcholine] in this work.
